Laboratory results published in patent US4654342A, “6-(cyanoguanidinophenyl)pyridazinones as cardiac stimulants” (Smith Kline & French Laboratories Ltd., priority 1984, dated 1987).
Where two headings read alike, the source gives them in different places.

Legend:
[1] = target: T1, Type (III) PDE (Cavia porcellus, UniProt H0VIU9); assay: Phosphodiesterase Type (III) inhibition; type: biochemical, guinea pig; conditions: 1 μm cyclic AMP, 10 minutes; 10 minutes pre-incubation; read-out: IC50, inhibition of `low Km` Type (III) PDE activity
T1 construct: phosphodiesterases (PDE) isolated from guinea pig ventricle; from tissue; host or cells: guinea pig ventricle; forms separated by ion-exchange chromatography
T1 sequence (H0VIU9 1-1132): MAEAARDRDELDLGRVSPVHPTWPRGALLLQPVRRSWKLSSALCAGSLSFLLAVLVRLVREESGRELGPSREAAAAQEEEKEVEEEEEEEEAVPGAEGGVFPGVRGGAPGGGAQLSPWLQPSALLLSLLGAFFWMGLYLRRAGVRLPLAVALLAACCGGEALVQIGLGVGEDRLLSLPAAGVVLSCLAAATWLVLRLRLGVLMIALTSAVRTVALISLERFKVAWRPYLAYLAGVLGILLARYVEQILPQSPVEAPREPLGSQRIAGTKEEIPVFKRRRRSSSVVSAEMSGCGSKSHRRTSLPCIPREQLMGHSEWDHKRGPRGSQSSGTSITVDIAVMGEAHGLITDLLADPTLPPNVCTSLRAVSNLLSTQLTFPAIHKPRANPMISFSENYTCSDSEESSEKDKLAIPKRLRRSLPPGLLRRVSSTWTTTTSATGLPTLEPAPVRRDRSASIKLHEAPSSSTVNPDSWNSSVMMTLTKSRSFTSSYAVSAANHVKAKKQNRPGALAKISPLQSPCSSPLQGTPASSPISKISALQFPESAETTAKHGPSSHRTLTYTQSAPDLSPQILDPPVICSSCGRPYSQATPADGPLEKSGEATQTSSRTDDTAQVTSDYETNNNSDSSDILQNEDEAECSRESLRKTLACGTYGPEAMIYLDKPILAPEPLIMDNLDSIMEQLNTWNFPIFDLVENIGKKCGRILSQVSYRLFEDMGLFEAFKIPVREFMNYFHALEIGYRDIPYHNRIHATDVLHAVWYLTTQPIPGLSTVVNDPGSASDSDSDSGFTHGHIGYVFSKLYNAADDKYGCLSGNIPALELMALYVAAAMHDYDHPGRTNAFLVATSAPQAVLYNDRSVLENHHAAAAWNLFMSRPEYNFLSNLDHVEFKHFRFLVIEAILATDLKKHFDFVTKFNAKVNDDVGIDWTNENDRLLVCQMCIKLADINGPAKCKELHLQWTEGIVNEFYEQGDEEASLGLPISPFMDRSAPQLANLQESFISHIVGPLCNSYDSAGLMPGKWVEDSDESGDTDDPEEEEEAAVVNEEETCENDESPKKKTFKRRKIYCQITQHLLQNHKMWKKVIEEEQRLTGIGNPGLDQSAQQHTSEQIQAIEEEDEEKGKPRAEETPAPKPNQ
Protocol: The products of Example 13 were tested for selectivity as inhibitors of the phosphodiesterases (PDE) isolated from guinea pig ventricle. Three forms of PDE were isolated by ion-exchange chromatography using the method of Thompson et al, Adv. Nucleotide Research, vol 10, p 69, Brooker et al (Eds), Raven Press, 1979.
In separate experiments with the (-)-isomer, the (+)-isomer and racemic material, following a 10 minutes pre-incubation of the test compound with Type (III) PDE, PDE activity was measured at 1 μm cyclic AMP for 10 minutes (using a modification of the method of Davis and Daly, Journal of Cyclic Nucleotide Research, vol 5, p 65, Raven Press, 1979). IC50 values were obtained for inhibition of `low Km` Type (III) PDE activity: […]

[2] = tested on: right ventricular strips; assay: Cardiac stimulant activity in vitro, guinea pig ventricular strips (force of contraction)
Protocol: The compounds of formula (I) and their pharmaceutically acceptable salts are tested for cardiac stimulant activity following a procedure based on that of S. C. Verma and J. H. McNeill (J.Pharm & Exp. Therapeutics, 200, 352-362 (1977)). Guinea pigs (500-700 g) of either sex are sacrificed and the hearts are quickly removed and transferred to a dissecting dish containing oxygenated bathing fluid. While in the bathing medium, the right ventricle is cut into two strips. The strips are each suspended in a 50 ml bath containing Krebs Henseleit solution at 37° C., and the bath is bubbled with 95% oxygen and 5% carbon dioxide. The ventricular strips are electrically stimulated at a frequency of 1.0 Hz, at double the threshold voltage. A resting tension of 1.0 g is applied to the strips and the tension is kept constant by readjustment during an equilibration period of 60 minutes. The bathing fluid is frequently changed during this period. When a steady base line is obtained, a compound under test is added to the bathing fluid and a cumulative concentration response curve is plotted. The compounds for use in the present invention which were tested gave a 50% increase in the force of contraction of the ventricular strips at concentrations in the bathing fluid of less than 10^-4 molar, thus showing that they have activity as positive inotropic agents.

[3] = tested on: hindquarters blood flow; assay: Vasodilator activity, anaesthetised rat hindquarters autoperfused at constant blood pressure; type: in vivo; conditions: anaesthetised rat hindquarters screen
Source text: The dose to increase hindquarters blood flow by 50% was 4.6 μmol/Kg.

[4] = tested on: left ventricular dp/dt max; assay: Cardiac stimulant activity in vivo, anaesthetised cats (left ventricular dp/dt max); set-up: species or system cat; key to Relative Duration: ***: long; **: medium; *: short; conditions: for positive inotropism, relative to the (+)-isomer: anaesthetised cat screen; for ED50: Felis catus, intravenous, dose to increase left ventricular dp/dt max by 50%, anaesthetised cats; for Relative Duration: estimated in anaesthetised cats following i.v. administration
Source text: The dose to increase left ventricular dp/dt max by 50% is given as the ED50.

[5] = tested on: hindquarters perfusion pressure; assay: Vasodilator activity, anaesthetised cat hindquarters autoperfused at constant blood flow; type: in vivo; conditions: for vasodilatation, relative to the (+)-isomer: anaesthetised cat screen; for ED15: Felis catus, anaesthetised cat, constant blood flow, read-out: dose to decrease hindquarters perfusion pressure (vasodilatation) by 15%
Protocol: The compounds of Examples 3, 4, 5 and 8 were tested in autoperfused anaesthetised cat hindquarters (autoperfused at constant blood flow). The doses to decrease hindquarters perfusion pressure (vasodilatation) by 15% are given below: […]

[6] = tested on: left ventricular dp/dt max; assay: Cardiac stimulant activity in vivo, conscious dogs (left ventricular dp/dt max); set-up: species or system dog
Protocol: Oral administration caused positive inotropic responses at doses of 0.25 mg/kg and below. […] Therefore this compound is particularly beneficial with regard to `force-rate` selectivity.

[7] = in vitro, read-out: EC50 value, inotropic activity on guinea pig ventricular strip
[8] = Cavia porcellus, 50% increase in force of contraction, guinea pig ventricular strips, read-out: EC50 × 10^-6 M

Compound	IC50 [1] [µM]	EC50 [2, 7] [µM]	EC50 [2, 8] [µM]	ED50 [4] [µmol/kg]	Relative Duration [4]	ED15 [5] [mg/kg]	further results
Nc1cc(-c2ccncc2)c[nH]c1=O [Amrinone, reference compound]	–	–	15	5.6	*	–	activity relative to compound of Example 1 [6]: less active; duration relative to compound of Example 1 [6]: of shorter duration
CCNC(=NC#N)Nc1ccc(C2=NNC(=O)CC2C)cc1 (stereo not drawn) [Example 3, 6-[4-(N^3 -Ethyl-N^2-cyanoguanidino)phenyl]-5-methyl-4,5-dihydro-3(2H)-pyridazinone]	–	–	1.4	0.2	***	0.044	–
CC(C)NC(=NC#N)Nc1ccc(C2=NNC(=O)CC2C)cc1 (stereo not drawn) [Example 4, 6-[4-(N^3 -Isopropyl-N^2-cyanoguanidino)phenyl]-5-methyl-4,5-dihydro-3(2H)-pyridazinone]	–	–	0.8	0.2	**	0.082	–
CCCCNC(=NC#N)Nc1ccc(C2=NNC(=O)CC2C)cc1 (stereo not drawn) [Example 5, 6-[4-(N^3 -Butyl-N^2-cyanoguanidino)phenyl]-5-methyl-4,5-dihydro-3(2H)-pyridazinone]	–	–	8.5	0.31	**	0.13	–
CNC(=NC#N)Nc1ccc(C2=NNC(=O)CC2)cc1 [Example 8, 6-[4-(N^3 -Methyl-N^2-cyanoguanidino)phenyl]-4,5-dihydro3(2H)-pyridazinone]	–	–	–	1.6	**	1	activation at 31.6 µM ([2]; Cavia porcellus, at 31.6 × 10^-6 M, read-out: increase in force of contraction (printed in EC50 column)): 40%

Second part, led by results:

IC50 [1] [µM]	EC50 [2, 7] [µM]	EC50 [2, 8] [µM]	Compound	ED50 [4] [µmol/kg]	Relative Duration [4]	ED15 [5] [mg/kg]	further results
37 ± 12.9	–	–	CC1CC(=O)NN=C1c1ccc(N)cc1 (racemic) [racemate, 6-(4-aminophenyl)-5-methyl-4,5-dihydro-3(2H)-pyridazinone]	–	–	–	–
207 ± 88	11.3	–	CC1CC(=O)NN=C1c1ccc(N)cc1 (single isomer, unassigned; (+)) [(+)-isomer, (+)-6-(4-aminophenyl)-5-methyl-4,5-dihydro-3(2H)-pyridazinone]	–	–	–	–
11.3 ± 5.4	4.3	–	CNC(=NC#N)Nc1ccc(C2=NNC(=O)CC2C)cc1 (single isomer, unassigned; (+)) [Example 15, (+)-6-[4-(N^3 -Methyl-N^2-cyanoguanidino)phenyl]-5-methyl-4,5-dihydro-3(2H)-pyridazinone]	–	–	–	dose to increase hindquarters blood flow by 50% [3]: 8.6 µM/kg
9.6 ± 3.4	1.4	–	CC1CC(=O)NN=C1c1ccc(N)cc1 (single isomer, unassigned; (-)) [(-)-isomer, (-)-6-(4-aminophenyl)-5-methyl-4,5-dihydro-3(2H)-pyridazinone]	–	–	–	positive inotropism, relative to the (+)-isomer [4]: more active than the (+)-isomer; vasodilatation, relative to the (+)-isomer [5]: more active than the (+)-isomer
1.7 ± 1	0.71	–	CNC(=NC#N)Nc1ccc(C2=NNC(=O)CC2C)cc1 (single isomer, unassigned; (-)) [Example 14, (-)-6-[4-(N^3 -Methyl-N^2-cyanoguanidino)phenyl]-5-methyl-4,5-dihydro-3(2H)-pyridazinone]	–	–	–	dose to increase hindquarters blood flow by 50% [3]: 2.4 µM/kg; positive inotropism, relative to the (+)-isomer [4]: more active than the corresponding (+)-isomer of Example 15; vasodilatation, relative to the (+)-isomer [5]: more active than the corresponding (+)-isomer of Example 15
–	–	1.4	CC1CC(=O)NN=C1c1ccc(NC(N)=NC#N)cc1 (stereo not drawn) [Example 6, 6-[4-(N^2 -Cyanoguanidino)phenyl]-5-methyl-4,5-dihydro-3(2H)-pyridazinone]	0.7	***	–	–
